These results are taken from patent US10213428B2, “(4-((3R,4R)-3-methoxytetrahydro-pyran-4-ylamino)piperidin-1-yl)(5-methyl-6-(((2R,6S)-6-(p-tolyl)tetrahydro-2H-pyran-2-yl)methylamino)pyrimidin-4-yl)methanone citrate” (Centrexion Therapeutics Corporation, priority 2015, dated 2019).

Data set [1] is described as follows: X-ray powder diffraction: crystallinity and polymorphism. It counts as physicochemical. An excerpt: X-ray powder diagrams were generated using a STOE-STADI P-diffractometer in transmission mode fitted with a MYTHEN-detector and a Cu-anode as X-ray source with monochromatic CuKα1 radiation (λ=1.54056 Å, 40 kV, 40 mA).
Data set [2] is described as follows: Oral pharmacokinetics in rat. Conditions: oral dose 20 μmol/kg of compound I. It counts as in vivo, Wistar(Han) rats. An excerpt: (§1) The pharmacokinetics of the test compound following single intravenous (IV) or oral (PO) doses were examined in • female BALB/c mice (average weight: 25 g) • male Wistar(Han) rats (average weight: 260 g) • male and female Göttingen Minipigs (average weight: 24 kg) • male beagle dogs (average weight: 15 kg) All non-rodent species were fasted overnight prior to dosing, while mice and rats had food and water available ad libitum. The p.o. dose of the compound was usually administered as suspension in 0.5% Natrosol or as a 0.5% Natrosol/0.015% Tween 80 suspension. For i.v. dosing purposes, the doses were applied as a solution in 0.9% NaCL, or as a solution containing 9.1% HP-beta Cyclodextrin in water.
(§2) Blood was collected by venous sampling and soaking of the blood in EDTA coated tubes. Samples were collected for up to 48 h after administration of the test compound. Plasma was then separated by centrifugation (5 min by approximately 9000 g at 4° C.). For determination of the test compound, plasma was transferred into PCR plates. All samples were stored at approximately −20° C. until bioanalytics. The test compound concentrations in plasma were determined by HPLC MS/MS. The lower limit of quantification was between 0.5 nmol/L and 1 nmol/L.

Data set [3] is described as follows: In vitro metabolic stability in hepatocyte incubations, mouse. It counts as in vitro ADME. As to conditions: hepatocytes (suspension); Mouse; predicted from hepatocyte CL intrinsic, well stirred model; read-out: CL, in vivo. As for the experimental part:
(§3) Metabolic degradation of the test compound is assayed in a hepatocyte suspension. Hepatocytes are incubated in an appropriate buffer system. Following a (typically) 30 min preincubation in an incubator (37° C., 10% CO2) 5 μL of test compound solution (1 μM) are added into 395 μL hepatocyte suspension (cell density in the range 0.25-5 Mio cells/mL, typically 1 Mio cells/mL, final DMSO concentration 0.05%). The cells are incubated for six hours (incubator, orbital shaker) and samples (25 μL) are taken at 0, 0.5, 1, 2, 4 and 6 hours. Samples are transferred into acetonitrile and pelleted by centrifugation (5 min). The supernatant is transferred to a new 96-deepwell plate, evaporated under nitrogen and resuspended. Decline of parent compound is analyzed by HPLC-MS/MS. CLint is calculated as follows CL_INTRINSIC=Dose/AUC=(CO/CD)/(AUD+clast/k)×1000/60. […]

In data set [4] the test system is hepatocytes. Described as above. Format: in vitro ADME. As to conditions: Mouse hepatocytes, 1 μM. As for the experimental part:
as §3

Data set [5] can be described thus: In vitro metabolic stability in hepatocyte incubations, minipig. It counts as in vitro ADME. As to conditions: hepatocytes (suspension); Minipig; predicted from hepatocyte CL intrinsic, well stirred model. As for the experimental part:
as §3

Data set [6] has as its system hepatocytes. Described as above. It counts as in vitro ADME. As to conditions: Minipig hepatocytes, 1 μM. As for the experimental part: as §3
Data set [7] in a line: Oral pharmacokinetics in mouse. It counts as in vivo, BALB/c mice. As to conditions: oral dose 20 μmol/kg.
Description: as §1, §2

For data set [8], the system named is plasma protein. Kind of data set: In vitro plasma protein binding (equilibrium dialysis), rat. Format: in vitro ADME. Conditions: 1.0 μM, dialysis 2 hours at 37° C. As for the experimental part: (§4) Dianorm Teflon dialysis cells (micro 0.2) are used. Each cell consists of a donor (i.e., buffer chamber) and an acceptor chamber (i.e., plasma chamber), separated by an ultrathin semipermeable membrane with a 5 kDa molecular weight cutoff. Stock solutions for each test compound are prepared in DMSO at 1 mM and diluted to a final concentration of 1.0 μM. Aliquots of 200 μL dialysis buffer (100 mM potassium phosphate, pH 7.4) are dispensed into the buffer chamber. Aliquots of 200 μL test compound dialysis solution are dispensed into the plasma chambers. Incubation is carried out for 2 hours under rotation at 37° C. Then, the dialysate is transferred into reaction tubes. The tubes for the buffer fraction contain 0.2 mL acetonitril/water (80/20 volume/volume). Aliquots of 25 μL of the plasma dialysate are transferred into deep well plates and mixed with 25 μL acetonitril/water (80/20 volume/volume), 25 μL buffer, 25 μL calibration solution and 25 μL Internal Standard solution. Protein precipitation is done by adding 200 μL acetonitrile. Aliquots of 50 μL of the buffer dialysate are transferred into deep well plates and mixed with 25 μL blank plasma, 25 μL Internal Standard solution and 200 μL acetonitril. Percent bound is calculated with the formula: % bound=(plasma concentration−buffer concentration/plasma concentration)×100.
In general terms: Equilibrium dialysis compares concentrations on both sides of a semipermeable membrane.

Assay in data set [9]: as above
As to conditions: pH 7.4, dialysis 2 hours at 37° C., read-out: Fraction bound (converted). Format: in vitro ADME. As for the experimental part:
as §4

Data set [10] deals with hepatocytes. Kind of data set: In vitro metabolic stability in hepatocyte incubations, human. It counts as in vitro ADME. As to conditions: Human hepatocytes, 1 μM. As for the experimental part: as §3
[11] abbreviates: male, Wistar(Han), plasma, 20 umol/kg, mean values.
Where [12] appears, read: female, BALB/c, plasma, 20 umol/kg, mean values.

As for `CO[C@H]1COCC[C@H]1NC1CCN(C(=O)c2ncnc(NC[C@H]3CCC[C@@H](c4ccc(C)cc4)O3)c2C)CC1` [compound I, (4-((3R,4R)-3-methoxytetrahydro-pyran-4-ylamino)piperidin-1-yl)(5-methyl-6-(((2R,6S)-6-(p-tolyl)tetrahydro-2H-pyran-2-yl)methylamino)pyrimidin-4-yl)methanone], the crystallinity result in data set [1] is given as “amorphous material”. Besides, the AUC(0-inf) (as a rule, total exposure, with the tail of the curve extrapolated) in data set [2] (setting [11]) stood at 2.27 µM·h; in data set [7] (setting [12]), 3.16 µM·h. The Cmax (usually the maximum level reached in the sampled fluid or tissue) in data set [2] (setting [11]) came out at 580 nM; in [7] (setting [12]) it was 974 nM. For the same molecule, the Tmax (commonly the time from dosing to the highest level) in [2] (setting [11]) was determined as 1.5 h; in data set [7] (setting [12]), 1 h. Also, the results for the MRTtot in data set [2] (mean values) and in [7] (mean values) were 5.49 h and 3.99 h, respectively. Moreover, the F came to 38% in data set [2] (oral bioavailability) and 79% in data set [7] (oral bioavailability). The CLhep predicted at 1 μM in [3] was 49 mL/min/kg. Moreover, the “CL intrinsic, in vitro” value is 16.4 μL/min/10e6 cells in [4], 2.73 μL/min/10e6 cells in [6] and 4.11 μL/min/10e6 cells in [10]. The predicted in vivo clearance at 1 μM in data set [5] is 6.8 mL/min/kg. Further, the Fraction unbound in data set [8] is reported as 31.1%. In [9], the fraction unbound at 2 h, 1 μM was 0.311.
